In brackets after ≈: the same amount, converted by molar mass. Like-named read-outs stand apart in the source and are kept apart here.
Key:
Vero cell line = experiment: Cytotoxic activity against Vero cell line by MTT method; format: cell-based; details: non-cytotoxic concentration (TC0)
Procedure: (§1) Cytotoxic activity was evaluated using Vero cell lines by the MTT method. Anti-HSV-1 activity was determined by plaque assay using monolayer cultures of Vero cells in 24-well culture plates (Corning, New York, NY, USA). Virus suspension containing HSV-1 (30 plaque forming units (PFU)/well) was added to the cell wells and incubated at 37 °C with 5% CO2 for 2 h. The virus inoculum was then removed and overlay medium (maintenance medium containing 1% methylcellulose and various concentrations of tested compound) was added to each well. After another 72 h of incubation, the cell monolayers were fixed with 10% formalin and stained with 1% crystal violet. Plaques were counted and the percentage of inhibition was calculated according to literature. The concentration reducing plaque numbers by 50% was calculated by regression analysis of the dose–response curves generated from the plaque assay and was defined as 50% inhibitory concentration (IC50).

AChE = target: T1, AChE (Homo sapiens, UniProt P22303); experiment: biochemical
T1 construct: purchased Sigma
T1 sequence (P22303 32-614): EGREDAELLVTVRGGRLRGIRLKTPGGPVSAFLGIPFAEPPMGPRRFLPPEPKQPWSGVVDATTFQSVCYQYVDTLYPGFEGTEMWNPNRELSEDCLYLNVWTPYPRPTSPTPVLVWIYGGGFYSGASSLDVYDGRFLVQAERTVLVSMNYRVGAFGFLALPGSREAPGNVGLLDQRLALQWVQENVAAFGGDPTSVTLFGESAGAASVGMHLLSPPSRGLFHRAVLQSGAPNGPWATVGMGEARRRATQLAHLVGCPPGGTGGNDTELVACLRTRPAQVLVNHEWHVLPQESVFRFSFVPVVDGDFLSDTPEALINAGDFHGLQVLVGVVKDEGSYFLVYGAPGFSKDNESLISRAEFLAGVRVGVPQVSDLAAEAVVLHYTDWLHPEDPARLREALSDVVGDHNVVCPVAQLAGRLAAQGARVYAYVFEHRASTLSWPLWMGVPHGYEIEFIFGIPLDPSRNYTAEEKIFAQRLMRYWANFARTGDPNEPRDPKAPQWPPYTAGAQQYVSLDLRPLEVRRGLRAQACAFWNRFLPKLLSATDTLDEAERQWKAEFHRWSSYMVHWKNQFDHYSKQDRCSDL
Procedure: The inhibitory activities against AChE of compounds were investigated in vitro using the modified Ellman method. Briefly, the reaction mixture containing 20 μL of a different concentrations of the test compunds dissolved in DMSO solution, 450 μL of reaction buffer (0.01 M phosphate buffer, pH 7.0), 10 μL of 0.08-0.10 units/mL AChE (Sigma, one unit hydrolyzes […] of acetylcholineto choline and acetate per min at pH 7.0, 37 °C) and 10 μL of 0.01 M DTNB (Sigma, St. Louis, MO, USA) were filled in a microwell of 24-well polystyrene plate and incubated for 30 min at 37 °C. After preincubation, The reaction was started by adding 20 μL of 0.01 M ATCh (Sigma, St. Louis, MO, USA) solution in 0.01 M phosphate buffer (pH 7.0). Colorimetric measurements (412 nm) were performed on a enspire multimode microplate reader (varioskan flash, Thermo, Waltham, MA, USA). For determining the blank value, the 20 μL of test compound solution was instead of 20 μL of DMSO solution. Each concentration was analyzed in triplicate. […] IC50 values were determined graphically from the regression analysis of concentration-inhibition curves. The IC50 values are the mean ± standard deviations of three independent experiments.

HSV-1 = experiment: Anti-HSV-1 plaque reduction assay in Vero cell monolayers; format: cell-based; details: 72 h, read-out: Anti-HSV-1 IC50
Procedure: The antiviral activities of 1–17 towards HSV-1 were evaluated using plaque reduction assay for the first time.
as §1

[1] = tested on: barnacle Balanus amphitrite larvae; experiment: Barnacle Balanus amphitrite larval settlement bioassay (antifouling); details: for EC50: Amphibalanus amphitrite, 24 h, read-out: Antifouling Against B. Amphitrite EC50; for LC50/EC50 values: antifouling activity at nontoxic concentrations, B. amphitrite larvae
Procedure: Larval settlement bioassays were performed using sterile 24-well polystyrene plates. Tested samples were dissolved in DMSO to a concentration of 50 μg·mL^−1 for preliminary bioassay. […] About 20 competent larvae were added to each well in 1 mL of the test solution. The experiment was repeated twice with four replicateseach time. Wells containing only FSW with DMSO served as the controls. The plates were incubated at 27 °C for 24 h. The percentage of larval settlement was determined by counting the settled, live individuals under a dissecting microscope and expressing the result as a proportion of the total number of larvae in the well. Statistical calculations were performed with the SPSS software package.

[2] = Human alphaherpesvirus 1, plaque reduction assay in Vero cells, under non-cytotoxic concentrations (TC0)

Structure (SMILES) | Cytotoxicity Against Vero TC0 (Vero cell line) | IC50 (AChE) | IC50 (HSV-1; [2]) | EC50 [1] | LC50/EC50 values [1] | also measured
COc1ccc(-c2cc3c(c(=O)o2)C[C@]2(O)[C@@]4(C)[C@@H](O)C[C@@H](OC(C)=O)C(C)(C)[C@]4(O)CC[C@@]2(C)O3)cc1 [Compound 7, arisugacin H] | 100 µg/mL | – | – | – | – | IC50 (AChE; modified Ellman method, value printed in μM in text, read-out: Anti-AChE IC50): 5.7 ± 0.8 µM
COc1ccc(-c2cc3c(c(=O)o2)C[C@]2(O)[C@@]4(C)CCC(=O)C(C)(C)[C@]4(O)CC[C@@]2(C)O3)cc1 [Compound 8, terreulactone C] | >25 µg/mL | 0.05 ± 0.0015 µM | – | – | – | –
COc1ccc(-c2cc3c(c(=O)o2)C[C@]2(O)[C@@]4(C)C(=O)C=CC(C)(C)[C@]4(O)CC[C@@]2(C)O3)cc1OC [Compound 6, arisugacin A] | 100 µg/mL | 0.0119 ± 0.0021 µM | – | – | – | IC50 (HSV-1; Human alphaherpesvirus 1, Vero): 6.34 ± 0.4 µg/mL (≈ 12.8 µM)
COc1ccc(-c2cc3c(c(=O)o2)C[C@H]2[C@@](C)(CC[C@@]4(O)C(C)(C)OC(=O)CC[C@]24C)O3)cc1 [Compound 3, 11a-dehydroxyisoterreulactone A] | 200 µg/mL | – | 16.4 ± 0.6 µg/mL (≈ 35 µM) | – | – | –
COc1cc(-c2cc3c(c(=O)o2)C[C@]2(O)[C@@]4(C)C(=O)C=CC(C)(C)[C@]4(O)CC[C@@]2(C)O3)ccc1O [Compound 2, territrem E] | 200 µg/mL | – | – | – | – | IC50 (AChE; modified Ellman method, pH 7.0, 37 °C, mean ± SD of three independent experiments, read-out: Anti-AChE IC50): 0.0045 ± 0.0006 µM
COC(=O)[C@]1(Cc2ccc3c(c2)CCC(C)(C)O3)OC(=O)C(O)=C1c1ccc(O)cc1 [Compound 12, aspernolide A] | 100 µg/mL | – | 28.9 ± 1.8 µg/mL (≈ 68.1 µM) | 7.4 ± 0.6 µg/mL (≈ 17.4 µM) | > 100 µg/mL | –
COC(=O)[C@]1(Cc2ccc(O)c(CCC(C)(C)O)c2)OC(=O)C(O)=C1c1ccc(O)cc1 [Compound 15, aspernolide B] | – | – | – | 16.1 ± 0.6 µg/mL (≈ 36.4 µM) | > 100 µg/mL | –
COC1(Cc2ccc(O)cc2)OC(=O)C(O)=C1c1ccc(O)cc1 (stereo not shown) [Compound 10, isobutyrolactone II] | 200 µg/mL | – | 21.8 ± 1.8 µg/mL (≈ 66.4 µM) | – | – | –
Nc1nc2c(ncn2COCCO)c(=O)[nH]1 [Acyclovir, reference compound] | >1000 µg/mL | – | 34.5 ± 0.7 µg/mL (≈ 153 µM) | – | – | –
COc1cc(-c2cc3c(c(=O)o2)C[C@]2(O)[C@@]4(C)C(=O)C=CC(C)(C)[C@]4(O)CC[C@@]2(C)O3)cc(OC)c1OC [Compound 4, territrem B] | 25 µg/mL | 0.0042 ± 0.0006 µM | – | – | – | –
COc1cc(-c2cc3c(c(=O)o2)C[C@]2(O)[C@@]4(C)C(=O)C=CC(C)(C)[C@]4(O)CC[C@@]2(C)O3)cc(OC)c1O [Compound 5, territrem C] | >25 µg/mL | 0.0201 ± 0.0033 µM | – | – | – | –
COC(=O)[C@]1(Cc2ccc3c(c2)C[C@H](O)C(C)(C)O3)OC(=O)C(O)=C1c1ccc(O)cc1 [Compound 11, butyrolactone V] | – | – | – | 22.1 ± 0.8 µg/mL (≈ 50.2 µM) | > 100 µg/mL | –
COc1cc(-c2cc3c(c(=O)o2)C[C@]2(O)[C@@]4(C)C(=O)C=CC(C)(C)[C@]4(O)CC[C@@]2(C)O3)cc(O)c1OC [Compound 1, territrem D] | 25 µg/mL | 0.0042 ± 0.0006 µM | – | 12.9 ± 0.5 µg/mL (≈ 25.2 µM) | > 100 µg/mL | –

— article PMC4278221, “Territrem and Butyrolactone Derivatives from a Marine-Derived Fungus Aspergillus Terreus” (Marine Drugs, 2014)
